Data taken from PubChem BioAssay (NCI).
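Tested at 5 concentrations; 48 h exposure; 96-well plates; endpoints linearly interpolated, else capped at highest concentration. Abbreviation: GI50, concentration required for 50% inhibition of growth. TGI marks complete inhibition of growth.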

How the values were obtained:
Assay in all cases: NCI-60 cell line screen, 48 h
[1] = tested on: 786-0 renal
[2] = tested on: A498 renal
[3] = tested on: A549 NSCLC
[4] = tested on: ACHN renal
[5] = tested on: BT-549 breast
[6] = tested on: CAKI-1 renal
[7] = tested on: CCRF-CEM leukemia
[8] = tested on: COLO 205 colon
[9] = tested on: DU-145 prostate
[10] = tested on: EKVX NSCLC
[11] = tested on: HCC-2998 colon
[12] = tested on: HCT-116 colon
[13] = tested on: HCT-15 colon
[14] = tested on: HL-60(TB) leukemia
[15] = tested on: HOP-62 NSCLC
[16] = tested on: HS 578T breast
[17] = tested on: HT29 colon
[18] = tested on: IGROV1 ovarian
[19] = tested on: K-562 leukemia
[20] = tested on: KM12 colon
[21] = tested on: LOX IMVI melanoma
[22] = tested on: M14 melanoma
[23] = tested on: MALME-3M melanoma
[24] = tested on: MCF7 breast
[25] = tested on: MDA-MB-231 breast
[26] = tested on: MDA-MB-435
[27] = tested on: MDA-MB-468 breast
[28] = tested on: MOLT-4 leukemia
[29] = tested on: NCI-H226 lung
[30] = tested on: NCI-H23 lung
[31] = tested on: NCI-H460 lung
[32] = tested on: NCI-H522 lung
[33] = tested on: NCI/ADR-RES ovarian
[34] = tested on: OVCAR-3 ovarian
[35] = tested on: OVCAR-4 ovarian
[36] = tested on: OVCAR-5 ovarian
[37] = tested on: OVCAR-8 ovarian
[38] = tested on: PC-3 prostate
[39] = tested on: RPMI-8226 leukemia
[40] = tested on: RXF 393 renal
[41] = tested on: SF-268 CNS
[42] = tested on: SF-295 CNS
[43] = tested on: SF-539 CNS
[44] = tested on: SK-MEL-2 melanoma
[45] = tested on: SK-MEL-28 melanoma
[46] = tested on: SK-MEL-5 melanoma
[47] = tested on: SK-OV-3 ovarian
[48] = tested on: SN12C renal
[49] = tested on: SNB-19 CNS
[50] = tested on: SR leukemia
[51] = tested on: SW-620 colon
[52] = tested on: T-47D breast
[53] = tested on: TK-10 renal
[54] = tested on: U251 CNS
[55] = tested on: UACC-257 melanoma
[56] = tested on: UACC-62 melanoma
[57] = tested on: UO-31 renal

`COc1ccc(C(=O)/C=C/c2cccnc2)cc1S(N)(=O)=O` showed a GI50 [1] of 11.2 µM, a TGI [1] of 24.1 µM and a GI50 [2] of 21.7 µM. For the same compound, the TGI [2] was 53.6 µM, the GI50 [3] was 13.8 µM and the TGI [3] was 33.9 µM. The GI50 [4] was 13.5 µM, the TGI [4] was 25.5 µM and the GI50 [5] was 12.9 µM. The TGI [5] was 25.4 µM, the GI50 [6] was 12.7 µM and the TGI [6] was 24.9 µM. The GI50 [7] was 12.6 µM, the TGI [7] was 33.2 µM and the GI50 [8] was 13.7 µM. The TGI [8] was 29.8 µM, the GI50 [9] was 11.2 µM and the TGI [9] was 22.6 µM. It also gave a GI50 [10] of 11.9 µM, a TGI [10] of 24.2 µM and a GI50 [11] of 13.9 µM. The TGI [11] was 26.1 µM, the GI50 [12] was 3.18 µM and the TGI [12] was 11.7 µM. The GI50 [13] was 4.18 µM, the TGI [13] was 16.7 µM and the GI50 [14] was 11 µM. For the same compound, the TGI [14] was 32.7 µM, the GI50 [15] was 15.6 µM and the TGI [15] was 33 µM. It also gave a GI50 [16] of 21.1 µM, a TGI [16] of 65.6 µM and a GI50 [17] of 5.49 µM. The TGI [17] was 21.2 µM, the GI50 [18] was 12.4 µM and the TGI [18] was 24.7 µM. For the same compound, the GI50 [19] was 2.92 µM, the TGI [19] was 20.5 µM and the GI50 [20] was 3.8 µM. The TGI [20] was 14.4 µM, the GI50 [21] was 4.63 µM and the TGI [21] was 16.1 µM. It also gave a GI50 [22] of 14.3 µM, a TGI [22] of 29 µM and a GI50 [23] of 14.2 µM. It also gave a TGI [23] of 27.1 µM, a GI50 [24] of 4.87 µM and a TGI [24] of 18.5 µM. The GI50 [25] was 13.4 µM, the TGI [25] was 25.5 µM and the GI50 [26] was 14.4 µM. It also gave a TGI [26] of 31.1 µM, a GI50 [27] of 7.1 µM and a TGI [27] of 20.1 µM. It also gave a GI50 [28] of 3.5 µM, a TGI [28] of 15.1 µM and a GI50 [29] of 14.4 µM. It also gave a TGI [29] of 32.3 µM, a GI50 [30] of 12 µM and a TGI [30] of 24.1 µM. It also gave a GI50 [31] of 9.17 µM, a TGI [31] of 44.9 µM and a GI50 [32] of 10.5 µM. For the same compound, the TGI [32] was 24.1 µM, the GI50 [33] was 23.4 µM and the TGI [33] was 90.2 µM. The GI50 [34] was 10.3 µM, the TGI [34] was 21.6 µM and the GI50 [35] was 16.3 µM. For the same compound, the TGI [35] was 36 µM, the GI50 [36] was 11.9 µM and the TGI [36] was 23.5 µM. For the same compound, the GI50 [37] was 15.1 µM, the TGI [37] was 35.6 µM and the GI50 [38] was 16.5 µM. It also gave a TGI [38] of 33.2 µM, a GI50 [39] of 9.08 µM and a TGI [39] of 28.2 µM. For the same compound, the GI50 [40] was 12.3 µM, the TGI [40] was 24.7 µM and the GI50 [41] was 13.6 µM. For the same compound, the TGI [41] was 31.6 µM, the GI50 [42] was 12.8 µM and the TGI [42] was 25.2 µM. It also gave a GI50 [43] of 4.32 µM, a TGI [43] of 15.7 µM and a GI50 [44] of 19.4 µM. The TGI [44] was 49.7 µM, the GI50 [45] was 14.9 µM and the TGI [45] was 27.5 µM. The GI50 [46] was 14.8 µM, the TGI [46] was 27.3 µM and the GI50 [47] was 16.7 µM. For the same compound, the TGI [47] was 31.1 µM, the GI50 [48] was 7.37 µM and the TGI [48] was 18.8 µM. The GI50 [49] was 13.4 µM, the TGI [49] was 25.4 µM and the GI50 [50] was 1.83 µM. For the same compound, the TGI [50] was 6.68 µM, the GI50 [51] was 6.38 µM and the TGI [51] was 29.5 µM. For the same compound, the GI50 [52] was 8.86 µM, the TGI [52] was 25.6 µM and the GI50 [53] was 13.9 µM. It also gave a TGI [53] of 26.6 µM, a GI50 [54] of 7.44 µM and a TGI [54] of 26.7 µM. For the same compound, the GI50 [55] was 15.7 µM, the TGI [55] was 32.2 µM and the GI50 [56] was 12.8 µM. The TGI [56] was 24.7 µM, the GI50 [57] was 6.05 µM and the TGI [57] was 18.5 µM.
